Test results taken from US6852328B1, “Method and device for protection of wooden objects proximate soil from pest invasion” (priority 1989, dated 2005).

Assays:
Type in all cases: physicochemical
[1] = Release rates of pesticide/polymer combinations, one inch squares cut from 1/8 inch sheets (Example 1); conditions: 10% pesticide
From the text: The following controlled release devices were made and tested to obtain their release rates (Table 1). The devices were made as follows. All devices, except for those employing S-113 urethane, were injection molded into a thin sheet about ⅛ inch thick. The device employing S-113 urethane was case, a method typically used for thermoset polymers. All thermoplastics were formulated using sufficient amount of carbon black to carry pesticides. All thermoplastic polymers were formulated with 10 percent pesticide, 3 or 7 percent carbon black to absorb liquid pesticide and 87 to 83 percent by weight of polymer. Specifically, devices made from thermoplastic polymers and deltamethrin and lambdacyhalothrin contained 3 percent of carbon black. The devices made from the remaining pesticides and thermoplastic polymers contained 7 percent of carbon black.
The devices made from S-113 urethane (a thermoset polymer) were made from a polymer mix containing 60% S-113, 40% castor oil, and 5% of TIPA catalyst by weight. The polymer mix comprised 90% of the total weight of the device. The pesticide, deltamethrin, comprised the remaining 10% of the device. No carbon black was used in this device. The polymer/pesticide mixture was cast, using a spin caster into a ⅛ inch thick sheet and heated at about 60° C. for about 40 to 60 minutes to cure the cast sheet.
One inch squares were then cut from the thin sheets that were injection molded or cast, and the squares were tested for release rates as shown in Table 1.

[2] = Release rate and longevity of high density polyethylene sheets as a function of thickness and temperature (Example 2); conditions: 10 wt % pesticide, 10 wt % carrier; for Longevity @ 23° C. / Longevity @ 35° C.: 80 wt % HDPE; for Release Rate @ 23° C.: sheet, 80 wt % high density polyethylene (MA 778000), 60 mil
From the text: Controlled release devices in the form of sheets are made having 10% wt % pesticide, 10 wt % carrier and 80 wt % high density polyethylene (MA 778000).

[3] = Release rate and longevity of pellet (Example 4); conditions: pellet about 100 g, about 150 cm^2, 70 wt % HDPE, 20 wt % pesticide, 10 wt % carrier
From the text: A pellet is made having a mass of about 100 g and a surface area of about 150 cm^2. The polymer is 70 wt % high density polyethylene, with 20 wt % pesticide and 10 wt % carrier. Comparing Table 4 to Table 3, it is evident that the encapsulated two-part construction provides longer life than the pellet.

[4] = Release rate and longevity of encapsulated two-part construction (Example 3); conditions: two-part device about 100 g, inner part 60 wt % pesticide, 40 wt % carrier, outer part HDPE 120 mil
From the text: A device having an inner part surrounded by or encapsulated by an outer part is constructed having an overall mass of about 100 g. The inner part contains 60 wt % pesticide and 40 wt % carrier. The outer part is high density polyethylene of a thickness of 120 mil.

[5] = polymer EVA 763, injection molded 1/8 inch sheet, 3 or 7% carbon black
[6] = polymer Polyethylene MA78000, injection molded 1/8 inch sheet, 3 or 7% carbon black
[7] = polymer polyurethane 2200, injection molded 1/8 inch sheet, 3 or 7% carbon black
[8] = polymer polyurethane 3100, injection molded 1/8 inch sheet, 3 or 7% carbon black

Q: With CC1(C)C(C=C(Cl)Cl)C1C(=O)OC(C#N)c1cccc(Oc2ccccc2)c1 (stereo not drawn) [Cypermethrin] as the compound, how does the “Release Rate” value [1, 5] read?
A: The value was 27.3 μg/cm2/day.

Q: What about the “Release Rate” value [1, 6] of the same compound?
A: The value was 4.6 μg/cm2/day.

Q: What about the “Release Rate” value [1, 7] of the same compound?
A: The value was 0.7 μg/cm2/day.

Q: And the “Release Rate” value [1, 8]?
A: Its value is 0.4 μg/cm2/day.

Q: For Oc1ccc(Cl)cc1Cc1cc(Cl)ccc1O [Dichlorophen], which “Longevity @ 23° C.” value ([2]; sheet thickness 60 mil) is on record?
A: Its value is 1.6 years.

Q: What about the “Longevity @ 35° C.” value ([2]; sheet thickness 60 mil) of the same compound?
A: Its value is 1.4 years.

Q: And the “Longevity @ 23° C.” value ([2]; sheet thickness 120 mil)?
A: Its value is 3.3 years.

Q: What about the “Longevity @ 35° C.” value ([2]; sheet thickness 120 mil) of the same compound?
A: Its value is 3.0 years.

Q: And the “Longevity @ 23° C.” value ([2]; sheet thickness 240 mil)?
A: Its value is 6.8 years.

Q: And the “Longevity @ 35° C.” value ([2]; sheet thickness 240 mil)?
A: The value was 6.4 years.

Q: What about the “Release Rate @ 23° C.” value [2] of the same compound?
A: Its value is 6.2 μg/cm^2/day.

Q: What about the “Longevity @ 23° C.” value [3] of the same compound?
A: The value was 33 years.

Q: And the “Release Rate @ 23° C.” value [3]?
A: Its value is 11 μg/cm^2/day.

Q: And the “Longevity @ 35° C.” value [3]?
A: The value was 16 years.

Q: What about the “Longevity @ 23° C.” value [4] of the same compound?
A: Its value is 56 years.

Q: What about the “Release Rate @ 23° C.” value [4] of the same compound?
A: Its value is 24 μg/cm^2/day.

Q: What about the “Longevity @ 35° C.” value [4] of the same compound?
A: The value was 28 years.

Q: What about the “Release Rate” value [1, 6] of the same compound?
A: Its value is 6.2 μg/cm2/day.

Q: Which results are given for CC1(C)[C@H](C(=O)O[C@H](C#N)c2cccc(Oc3ccccc3)c2)[C@@H]1/C=C(\Cl)C(F)(F)F [Lambdacyhalothrin]?
A: Release Rate [1, 5]: 20.6 μg/cm2/day; Release Rate [1, 6]: 5.2 μg/cm2/day; Release Rate [1, 7]: 2.0 μg/cm2/day; Release Rate [1, 8]: 0.7 μg/cm2/day

Q: Which results are given for CC1(C)[C@H](C(=O)O[C@H](C#N)c2cccc(Oc3ccccc3)c2)[C@@H]1C=C(Br)Br [Deltamethrin]?
A: Release Rate ([1]; polymer Alipmtic PS-49-100, injection molded 1/8 inch sheet, 3% carbon black): 7.2 μg/cm2/day; Release Rate ([1]; polymer Aromatic 80A, injection molded 1/8 inch sheet, 3% carbon black): 16.8 μg/cm2/day; Release Rate ([1]; polymer S-113 urethane (thermoset), cast 1/8 inch sheet, no carbon black): 25.2 μg/cm2/day; Release Rate ([1]; polymer pellethane 2102-55D, injection molded 1/8 inch sheet, 3% carbon black): 8.0 μg/cm2/day; Release Rate ([1]; polymer pellethane 2102-80A, injection molded 1/8 inch sheet, 3% carbon black): 8.8 μg/cm2/day

Q: Which “Longevity @ 23° C.” value ([2]; sheet thickness 60 mil) does the source give for c1ccc(-c2ccccc2)cc1 [Biphenyl] here?
A: Its value is 2.5 years.

Q: What about the “Longevity @ 35° C.” value ([2]; sheet thickness 60 mil) of the same compound?
A: Its value is 2.1 years.

Q: And the “Longevity @ 23° C.” value ([2]; sheet thickness 120 mil)?
A: Its value is 5.1 years.

Q: What about the “Longevity @ 35° C.” value ([2]; sheet thickness 120 mil) of the same compound?
A: Its value is 4.4 years.

Q: What about the “Longevity @ 23° C.” value ([2]; sheet thickness 240 mil) of the same compound?
A: Its value is 11.2 years.

Q: What about the “Longevity @ 35° C.” value ([2]; sheet thickness 240 mil) of the same compound?
A: The value was 9.1 years.

Q: What about the “Release Rate @ 23° C.” value [2] of the same compound?
A: Its value is 3.5 μg/cm^2/day.

Q: What about the “Longevity @ 23° C.” value [3] of the same compound?
A: Its value is 22 years.

Q: What about the “Release Rate @ 23° C.” value [3] of the same compound?
A: The value was 16 μg/cm^2/day.

Q: And the “Longevity @ 35° C.” value [3]?
A: The value was 11 years.

Q: And the “Longevity @ 23° C.” value [4]?
A: The value was 31 years.

Q: What about the “Release Rate @ 23° C.” value [4] of the same compound?
A: Its value is 35 μg/cm^2/day.

Q: What about the “Longevity @ 35° C.” value [4] of the same compound?
A: The value was 23 years.

Q: With CCOP(=S)(OCC)Oc1cc(C)nc(C(C)C)n1 [Diazinon] as the compound, how does the “Longevity @ 23° C.” value ([2]; sheet thickness 60 mil) read?
A: Its value is 1.1 years.

Q: And the “Longevity @ 35° C.” value ([2]; sheet thickness 60 mil)?
A: The value was 0.6 years.

Q: And the “Longevity @ 23° C.” value ([2]; sheet thickness 120 mil)?
A: Its value is 2.3 years.

Q: What about the “Longevity @ 35° C.” value ([2]; sheet thickness 120 mil) of the same compound?
A: Its value is 1.3 years.

Q: And the “Longevity @ 23° C.” value ([2]; sheet thickness 240 mil)?
A: Its value is 4.8 years.

Q: What about the “Longevity @ 35° C.” value ([2]; sheet thickness 240 mil) of the same compound?
A: Its value is 2.7 years.

Q: What about the “Release Rate @ 23° C.” value [2] of the same compound?
A: Its value is 11.7 μg/cm^2/day.

Q: What about the “Longevity @ 23° C.” value [3] of the same compound?
A: Its value is 8.1 years.

Q: What about the “Release Rate @ 23° C.” value [3] of the same compound?
A: Its value is 45 μg/cm^2/day.

Q: What about the “Longevity @ 35° C.” value [3] of the same compound?
A: The value was 5.1 years.

Q: What about the “Longevity @ 23° C.” value [4] of the same compound?
A: The value was 39 years.

Q: What about the “Release Rate @ 23° C.” value [4] of the same compound?
A: Its value is 28 μg/cm^2/day.

Q: What about the “Longevity @ 35° C.” value [4] of the same compound?
A: Its value is 24 years.

Q: For Cc1c(F)c(F)c(COC(=O)[C@@H]2[C@H](/C=C(\Cl)C(F)(F)F)C2(C)C)c(F)c1F (racemic) [Tefluthrin], which “Longevity @ 23° C.” value ([2]; sheet thickness 60 mil) is on record?
A: The value was 9.1 years.

Q: And the “Longevity @ 35° C.” value ([2]; sheet thickness 60 mil)?
A: Its value is 3.1 years.

Q: And the “Longevity @ 23° C.” value ([2]; sheet thickness 120 mil)?
A: Its value is 18.2 years.

Q: And the “Longevity @ 35° C.” value ([2]; sheet thickness 120 mil)?
A: Its value is 5.9 years.

Q: What about the “Longevity @ 23° C.” value ([2]; sheet thickness 240 mil) of the same compound?
A: Its value is 39 years.

Q: And the “Longevity @ 35° C.” value ([2]; sheet thickness 240 mil)?
A: Its value is 10.4 years.

Q: And the “Release Rate @ 23° C.” value [2]?
A: The value was 1.3 μg/cm^2/day.

Q: And the “Longevity @ 23° C.” value [3]?
A: Its value is 33 years.

Q: What about the “Release Rate @ 23° C.” value [3] of the same compound?
A: The value was 11 μg/cm^2/day.

Q: What about the “Longevity @ 35° C.” value [3] of the same compound?
A: Its value is 16 years.

Q: And the “Longevity @ 23° C.” value [4]?
A: The value was 35 years.

Q: What about the “Release Rate @ 23° C.” value [4] of the same compound?
A: Its value is 31 μg/cm^2/day.

Q: What about the “Longevity @ 35° C.” value [4] of the same compound?
A: Its value is 18 years.

Q: What about the “Release Rate” value [1, 5] of the same compound?
A: Its value is 40.4 μg/cm2/day.

Q: What about the “Release Rate” value [1, 6] of the same compound?
A: The value was 27.0 μg/cm2/day.

Q: What about the “Release Rate” value [1, 7] of the same compound?
A: The value was 25.0 μg/cm2/day.

Q: What about the “Release Rate” value [1, 8] of the same compound?
A: Its value is 6.4 μg/cm2/day.

Q: With CC1(C)C(C=C(Cl)Cl)C1C(=O)OCc1cccc(Oc2ccccc2)c1 (stereo not drawn) [Permethrin] as the compound, how does the “Longevity @ 23° C.” value ([2]; sheet thickness 60 mil) read?
A: Its value is 8.6 years.

Q: And the “Longevity @ 35° C.” value ([2]; sheet thickness 60 mil)?
A: The value was 3.2 years.

Q: And the “Longevity @ 23° C.” value ([2]; sheet thickness 120 mil)?
A: Its value is 17 years.

Q: And the “Longevity @ 35° C.” value ([2]; sheet thickness 120 mil)?
A: Its value is 6.5 years.

Q: And the “Longevity @ 23° C.” value ([2]; sheet thickness 240 mil)?
A: The value was 35 years.

Q: And the “Longevity @ 35° C.” value ([2]; sheet thickness 240 mil)?
A: The value was 13 years.

Q: And the “Release Rate @ 23° C.” value [2]?
A: The value was 1.5 μg/cm^2/day.

Q: And the “Longevity @ 23° C.” value [3]?
A: Its value is 30 years.

Q: What about the “Release Rate @ 23° C.” value [3] of the same compound?
A: The value was 12 μg/cm^2/day.

Q: What about the “Longevity @ 35° C.” value [3] of the same compound?
A: The value was 14 years.

Q: What about the “Longevity @ 23° C.” value [4] of the same compound?
A: Its value is 68 years.

Q: And the “Release Rate @ 23° C.” value [4]?
A: Its value is 16 μg/cm^2/day.

Q: What about the “Longevity @ 35° C.” value [4] of the same compound?
A: The value was 38 years.

Q: And the “Release Rate” value [1, 5]?
A: The value was 28.5 μg/cm2/day.

Q: And the “Release Rate” value [1, 6]?
A: The value was 4.0 μg/cm2/day.

Q: What about the “Release Rate” value [1, 7] of the same compound?
A: Its value is 1.3 μg/cm2/day.

Q: And the “Release Rate” value [1, 8]?
A: Its value is 1.4 μg/cm2/day.
